Values joined by “and” are separate entries in the source; they are usually repeats but may differ in a detail not shown here. Equal entries are not always repeated.
test system: Phakopsora pachyrhizi; assay: Test A: preventive spray on soybean seedlings, Asian soybean rust, visual disease rating; assay type: in vivo; settings: rate 10 ppm
Excerpt: General protocol for preparing test suspensions for Test A: the test compounds were first dissolved in acetone in an amount equal to 3% of the final volume and then suspended at the desired concentration (in ppm) in acetone and purified water (50/50 mix by volume) containing 250 ppm of the surfactant PEG400 (polyhydric alcohol esters). The resulting test suspensions were then used in Test A.
The test solution was sprayed to the point of run-off on soybean seedlings. The following day the seedlings were inoculated with a spore suspension of Phakopsora pachyrhizi (the causal agent of Asian soybean rust) and incubated in a saturated atmosphere at 22° C. for 24 h and then moved to a growth chamber at 22° C. for 8 days, after which time visual disease ratings were made.
A rating of 100 indicates 100% disease control and a rating of 0 indicates no disease control (relative to the controls).

SMILES	Test A rating (100 = 100% disease control, 0 = no disease control relative to the controls)
CCO/C(=C\Oc1ccc(Cn2cc(COC(=O)C(Cl)Cl)cn2)cc1)C(F)(F)F [compound 16]	100%
C#CCOCc1cn(Cc2ccc(O/C=C(\OCC)C(F)(F)F)cc2)nn1 [Compound 38]	78% and 88%
CCO/C(=C\Oc1ccc(Cn2cc(C(=O)N(C)OCC3CC3)cn2)cc1)C(F)(F)F [compound 39]	100%
C#CCC(=O)OCc1cnn(Cc2ccc(O/C=C(\OCC)C(F)(F)F)cc2)c1 [compound 44]	100%
CCO/C(=C\Oc1ccc(Cn2cc(C(=O)NOCC3CC3)cn2)cc1)C(F)(F)F [compound 25]	100%
CCO/C(=C\Oc1ccc(Cn2cc(COCC3CCCC3)cn2)cc1)C(F)(F)F [compound 63]	100%
C=CCONC(=O)c1cnn(CCc2ccc(O/C=C(\OCC)C(F)(F)F)cc2)c1 [compound 62]	100%
CCO/C(=C\Oc1ccc(Cn2cc(COC(=O)COC)cn2)c(F)c1)C(F)(F)F [Compound 75]	100%
C=CCONC(=O)c1cn(Cc2ccc(O/C=C(\OCC)C(F)(F)F)cc2)nn1 [Compound 83]	99%
C#CCONC(=O)c1cc(Cc2ccc(O/C=C(\OCC)C(F)(F)F)cc2)ccn1 [Compound 131, 4-[[4-1[[(1Z)-2-ethoxy-3,3,3-trifluoro-1-propen-1-yl]oxy]phenyl]methyl]-N-(2-propyn-1-yloxy)-2-pyridinecarboxamide]	100%
CCO/C(=C\Oc1ccc(Cn2cc(COC(=O)CC(C)(C)C)cn2)cc1)C(F)(F)F [compound 49]	99%
CCO/C(=C\Oc1ccc(Cn2cc(COC(=O)C3CC3)cn2)cc1)C(F)(F)F [compound 51]	100%
C=CCONC(=O)c1cnn(CCCc2ccc(O/C=C(\OCC)C(F)(F)F)cc2)c1 [compound 60]	96%
CCO/C(=C\Oc1ccc(Cn2cc(COC(=O)CCC(=O)OC)cn2)cc1)C(F)(F)F [compound 26]	100%
CCO/C(=C\Oc1ccc(Cn2cc(COCC3CC3)cn2)cc1)C(F)(F)F [compound 64]	100%
CCO/C(=C\Oc1ccc(Cn2cccc(C(=O)N(C)OCCOC)c2=O)cc1)C(F)(F)F [compound 101]	94%
CCO/C(=C\Oc1ccc(Cn2cc(COC(=O)C(C)(C)C)cn2)c(F)c1)C(F)(F)F [Compound 73]	100%
CCO/C(=C\Oc1ccc(Cn2cc(C(=O)NOCC#N)cn2)c(F)c1F)C(F)(F)F [Compound 78]	100%
CCO/C(=C\Oc1ccc(Cn2cc(COC(=O)OC)cn2)c(F)c1F)C(F)(F)F [Compound 69]	100%
CCO/C(=C\Oc1ccc(Cn2cccc(C(=O)NOCC3CC3)c2=O)cc1)C(F)(F)F [compound 104]	100%
CCO/C(=C\Oc1ccc(Cn2cc(C(=O)NOCC#N)cn2)c(F)c1)C(F)(F)F [Compound 81]	100%
CCO/C(=C\Oc1ccc(Cn2cc(CON(C(C)=O)C(C)=O)cn2)cc1)C(F)(F)F [compound 20]	79%
CCO/C(=C\Oc1ccc(Cn2cc(COC(=O)CC#N)cn2)cc1)C(F)(F)F [compound 24]	100%

same assay, conditions: rate 10 ppm, read-out: Test A rating (100 = 100% disease control, 0 = no disease control relative to the controls)

SMILES	pest or weed control at 10 ppm [%]
CCO/C(=C\Oc1ccc(Cc2cccc(C(=O)N(C)OCC(F)(F)F)n2)cc1)C(F)(F)F [Compound 120, 2-[[4-[[(1Z)-2-ethoxy-3,3,3-trifluoro-1-propen-1-yl]oxy]phenyl]methyl]-N-(2,2,2-trifluoroethoxy)-N-methyl-6-pyridinecarboxamide]	100
O=C(OCc1cnn(Cc2ccc(OCC3(C(F)(F)F)OCCO3)cc2)c1)C1CCCC1 [Compound 4, [1-[[4-[[2-(trifluoromethyl)-1,3-dioxolan-2-yl]methoxy]phenyl]methyl]-1H-pyrazol-4-yl]methyl cyclopentanecarboxylate]	90
C=CCON(C)C(=O)c1cc(Cc2ccc(OCC3(C(F)(F)F)OCCO3)cc2)ccn1 [compound 130]	99
C=CCON(CC)C(=O)c1cc(Cc2ccc(O/C=C(\OCC)C(F)(F)F)cc2)ccn1 [Compound 119, 4-[[4-[[(1Z)-2-ethoxy-3,3,3-trifluoro-1-propen-1-yl]oxy]phenyl]methyl]-N-ethyl-N-(2-propen-1-yloxy)-2-pyridinecarboxamide]	100
CCO/C(=C\Oc1ccc(Cn2cc(COC(=O)COC)cn2)cc1)C(F)(F)F [Compound 23, [1-[[4-[[(1Z)-2-ethoxy-3,3,3-trifluoro-1-propen-1-yl]oxy]phenyl]methyl]-1H-pyrazol-4-yl]methyl 2-methoxyacetate]	100
CCO/C(=C\Oc1ccc(Cc2nc(C(=O)NOCC3CC3)cs2)cc1)C(F)(F)F [compound 116]	100
C=CCONC(=O)c1ccn(Cc2ccc(O/C=C(\OCC)C(F)(F)F)cc2)c1 [compound 115]	96
CCO/C(=C\Oc1ccc(Cn2cc(COC(=O)C(C)(C)C)cn2)cc1)C(F)(F)F [Compound 47, [1-[[4-[[(1Z)-2-ethoxy-3,3,3-trifluoro-1-propen-1-yl]oxy]phenyl]methyl]-1H-pyrazol-4-yl]methyl 2,2-dimethylpropanoate]	100
C=CCON(C)C(=O)c1cccc(Cc2ccc(O/C=C(\OCC)C(F)(F)F)cc2)n1 [Compound 108, 2-[[4-[[(1Z)-2-ethoxy-3,3,3-trifluoro-1-propen-1-yl]oxy]phenyl]methyl]-N-methyl-N-(2-propen-1-yloxy)-6-pyridinecarboxamide]	100
C#CCO/N=C(\OC)c1cccc(Cc2ccc(O/C=C(\OCC)C(F)(F)F)cc2)n1 [compound 134]	99
CCO/C(=C\Oc1ccc(Cc2cccc(C(=O)N(C)OCC3CC3)n2)cc1)C(F)(F)F [Compound 123, 2-[[4-[[(1Z)-2-ethoxy-3,3,3-trifluoro-1-propen-1-yl]oxy]phenyl]methyl]-N-(cyclopropylmethoxy)-N-methyl-6-pyridinecarboxamide]	100
CCO/C(=C\Oc1ccc(Cn2cc(C(=O)NOCc3ccccc3)cn2)cc1)C(F)(F)F [Compound 31, 1-[[4-[[(1Z)-2-ethoxy-3,3,3-trifluoro-1-propen-1-yl]oxy]phenyl]methyl]-N-(phenylmethoxy)-1H-pyrazole-4-carboxamide]	100

same assay, conditions: rate 50 ppm

SMILES	Test A rating (100 = 100% disease control, 0 = no disease control relative to the controls) [%]
COCC(=O)OCc1cnn(Cc2ccc(OCC3(C(F)(F)F)OCCO3)cc2)c1 [Compound 86]	100
C#CCOCc1cnn(Cc2ccc(OCC3(C(F)(F)F)OCCO3)cc2)c1 [Compound 94]	100
O=C(CC1CC1)OCc1cnn(Cc2ccc(OCC3(C(F)(F)F)OCCO3)cc2)c1 [Compound 88]	100

— patent publication US20250089717A1, “FUNGICIDAL HALOMETHYL KETONES, HYDRATES AND ENOL ETHERS AND THEIR MIXTURES” (FMC CORPORATION, priority 2023, published 2025)
